According to ChEMBL document CHEMBL4028887, “Improvement of Cell Permeability of Human Neuronal Nitric Oxide Synthase Inhibitors Using Potent and Selective 2-Aminopyridine-Based Scaffolds with a Fluorobenzene Linker” (J Med Chem, 2017):
pKi: −log10 of the molar value.

Legend:
[1] = target: T1, Nitric oxide synthase, inducible (Mus musculus, UniProt P29477)
T1 sequence (P29477 whole entry): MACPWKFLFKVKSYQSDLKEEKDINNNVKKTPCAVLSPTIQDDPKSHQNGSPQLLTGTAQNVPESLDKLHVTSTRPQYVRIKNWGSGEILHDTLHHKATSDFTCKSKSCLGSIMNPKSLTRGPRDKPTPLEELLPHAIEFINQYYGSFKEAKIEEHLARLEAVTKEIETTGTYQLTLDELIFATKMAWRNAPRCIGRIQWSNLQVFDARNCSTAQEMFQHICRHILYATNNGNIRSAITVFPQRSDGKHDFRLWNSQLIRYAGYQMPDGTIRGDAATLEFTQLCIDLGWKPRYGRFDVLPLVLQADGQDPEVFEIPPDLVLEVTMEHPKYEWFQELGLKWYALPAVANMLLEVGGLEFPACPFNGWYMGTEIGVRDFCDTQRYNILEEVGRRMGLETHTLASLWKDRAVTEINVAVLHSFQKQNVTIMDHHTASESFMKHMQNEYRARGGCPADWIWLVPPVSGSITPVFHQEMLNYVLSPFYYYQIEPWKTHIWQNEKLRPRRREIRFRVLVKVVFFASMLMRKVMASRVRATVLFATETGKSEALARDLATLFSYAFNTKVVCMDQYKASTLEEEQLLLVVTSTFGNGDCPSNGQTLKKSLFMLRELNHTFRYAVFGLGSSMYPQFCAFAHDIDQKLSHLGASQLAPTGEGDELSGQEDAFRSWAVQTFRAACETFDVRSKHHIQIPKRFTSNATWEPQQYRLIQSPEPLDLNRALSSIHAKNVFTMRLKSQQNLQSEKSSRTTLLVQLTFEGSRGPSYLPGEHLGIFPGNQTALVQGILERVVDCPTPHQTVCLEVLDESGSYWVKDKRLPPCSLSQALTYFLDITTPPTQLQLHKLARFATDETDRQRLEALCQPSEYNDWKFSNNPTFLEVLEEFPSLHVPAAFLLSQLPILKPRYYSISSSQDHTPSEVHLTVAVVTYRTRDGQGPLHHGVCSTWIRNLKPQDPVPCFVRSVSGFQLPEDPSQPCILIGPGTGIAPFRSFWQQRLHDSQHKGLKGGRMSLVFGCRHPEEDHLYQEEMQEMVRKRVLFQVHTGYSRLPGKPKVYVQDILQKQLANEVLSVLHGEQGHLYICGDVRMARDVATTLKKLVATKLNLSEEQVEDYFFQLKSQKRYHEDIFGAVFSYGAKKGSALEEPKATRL

[2] = target: T2, Nitric oxide synthase 3 (Homo sapiens, UniProt P29474); type: ADME
T2 sequence (P29474 whole entry): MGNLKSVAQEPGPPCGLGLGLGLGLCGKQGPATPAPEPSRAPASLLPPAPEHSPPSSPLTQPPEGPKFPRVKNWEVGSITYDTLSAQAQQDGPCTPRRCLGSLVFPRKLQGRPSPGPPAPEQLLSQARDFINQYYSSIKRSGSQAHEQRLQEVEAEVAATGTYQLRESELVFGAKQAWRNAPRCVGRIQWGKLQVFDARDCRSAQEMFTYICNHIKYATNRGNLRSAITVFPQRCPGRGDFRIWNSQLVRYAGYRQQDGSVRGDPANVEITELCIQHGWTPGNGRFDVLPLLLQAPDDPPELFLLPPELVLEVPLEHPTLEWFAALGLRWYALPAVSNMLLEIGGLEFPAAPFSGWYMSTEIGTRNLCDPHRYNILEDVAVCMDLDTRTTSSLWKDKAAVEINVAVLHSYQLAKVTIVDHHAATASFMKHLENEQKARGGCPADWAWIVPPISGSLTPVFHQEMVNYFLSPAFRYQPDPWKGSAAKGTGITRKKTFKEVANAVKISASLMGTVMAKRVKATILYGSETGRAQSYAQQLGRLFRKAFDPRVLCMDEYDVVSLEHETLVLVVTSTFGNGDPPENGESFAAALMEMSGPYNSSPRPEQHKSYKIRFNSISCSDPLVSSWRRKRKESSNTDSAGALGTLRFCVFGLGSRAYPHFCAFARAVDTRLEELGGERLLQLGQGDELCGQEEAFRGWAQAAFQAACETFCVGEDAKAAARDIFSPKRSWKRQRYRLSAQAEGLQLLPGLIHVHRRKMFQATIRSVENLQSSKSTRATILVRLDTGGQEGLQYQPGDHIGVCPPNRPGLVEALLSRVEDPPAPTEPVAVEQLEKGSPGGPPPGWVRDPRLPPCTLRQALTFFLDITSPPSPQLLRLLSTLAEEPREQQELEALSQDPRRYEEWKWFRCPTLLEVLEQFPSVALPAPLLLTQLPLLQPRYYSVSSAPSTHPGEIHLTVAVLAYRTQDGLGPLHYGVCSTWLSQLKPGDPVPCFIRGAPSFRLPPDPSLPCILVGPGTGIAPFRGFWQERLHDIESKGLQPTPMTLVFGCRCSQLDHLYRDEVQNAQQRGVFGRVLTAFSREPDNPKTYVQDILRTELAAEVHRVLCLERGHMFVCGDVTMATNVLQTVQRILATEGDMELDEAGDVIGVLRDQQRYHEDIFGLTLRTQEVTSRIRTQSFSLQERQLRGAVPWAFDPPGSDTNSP

[3] = target: Nitric oxide synthase 1 (Rattus norvegicus, UniProt P29476)
Sequence of Nitric oxide synthase 1 (Rattus norvegicus, UniProt P29476) (P29476 whole entry): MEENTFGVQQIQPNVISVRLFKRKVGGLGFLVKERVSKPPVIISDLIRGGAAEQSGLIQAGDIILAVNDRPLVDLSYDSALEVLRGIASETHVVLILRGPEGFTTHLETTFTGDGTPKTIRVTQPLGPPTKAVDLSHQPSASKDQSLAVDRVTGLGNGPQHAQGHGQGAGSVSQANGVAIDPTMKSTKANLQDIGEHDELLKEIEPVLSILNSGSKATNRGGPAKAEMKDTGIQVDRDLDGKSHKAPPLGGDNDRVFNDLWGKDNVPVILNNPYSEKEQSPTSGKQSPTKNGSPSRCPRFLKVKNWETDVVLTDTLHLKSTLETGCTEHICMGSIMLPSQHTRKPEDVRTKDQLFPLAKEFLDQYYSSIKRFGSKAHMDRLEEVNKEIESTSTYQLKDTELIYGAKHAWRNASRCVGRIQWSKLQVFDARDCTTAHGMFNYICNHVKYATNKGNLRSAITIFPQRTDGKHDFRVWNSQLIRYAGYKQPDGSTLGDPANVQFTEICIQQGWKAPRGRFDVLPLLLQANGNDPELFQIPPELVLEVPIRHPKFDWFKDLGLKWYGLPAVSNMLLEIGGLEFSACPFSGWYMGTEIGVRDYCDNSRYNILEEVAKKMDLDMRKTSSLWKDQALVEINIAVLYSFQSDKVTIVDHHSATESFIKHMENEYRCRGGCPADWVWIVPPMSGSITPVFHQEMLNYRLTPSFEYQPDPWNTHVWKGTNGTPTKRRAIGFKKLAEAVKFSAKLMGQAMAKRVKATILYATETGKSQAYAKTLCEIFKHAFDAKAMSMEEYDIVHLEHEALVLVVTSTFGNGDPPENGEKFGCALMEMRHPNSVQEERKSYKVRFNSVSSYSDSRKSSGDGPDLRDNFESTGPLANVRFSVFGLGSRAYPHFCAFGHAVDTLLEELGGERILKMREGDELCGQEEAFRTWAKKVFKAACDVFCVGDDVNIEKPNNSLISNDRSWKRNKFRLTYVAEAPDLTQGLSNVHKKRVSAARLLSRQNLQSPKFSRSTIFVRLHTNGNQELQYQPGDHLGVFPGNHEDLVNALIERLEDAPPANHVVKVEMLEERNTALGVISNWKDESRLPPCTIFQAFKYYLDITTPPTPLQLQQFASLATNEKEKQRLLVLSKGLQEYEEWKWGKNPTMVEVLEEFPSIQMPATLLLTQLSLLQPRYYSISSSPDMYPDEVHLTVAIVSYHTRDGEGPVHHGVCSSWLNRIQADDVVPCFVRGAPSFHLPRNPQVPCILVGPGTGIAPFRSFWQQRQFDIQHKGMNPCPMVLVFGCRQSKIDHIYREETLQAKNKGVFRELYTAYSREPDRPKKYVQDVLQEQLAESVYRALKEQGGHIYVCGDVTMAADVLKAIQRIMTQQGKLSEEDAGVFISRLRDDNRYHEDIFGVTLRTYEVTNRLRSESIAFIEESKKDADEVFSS

[4] = target: Nitric oxide synthase 1 (Homo sapiens, UniProt P29475); experiment: Inhibition of human neuronal NOS expressed in Escherichia coli using L-arginine as substrate assessed as reduction in NO production by measuring oxidation of oxyHb to metHb measured for 6 mins by hemoglobin- NO capture assay
Sequence of Nitric oxide synthase 1 (Homo sapiens, UniProt P29475) (P29475 whole entry): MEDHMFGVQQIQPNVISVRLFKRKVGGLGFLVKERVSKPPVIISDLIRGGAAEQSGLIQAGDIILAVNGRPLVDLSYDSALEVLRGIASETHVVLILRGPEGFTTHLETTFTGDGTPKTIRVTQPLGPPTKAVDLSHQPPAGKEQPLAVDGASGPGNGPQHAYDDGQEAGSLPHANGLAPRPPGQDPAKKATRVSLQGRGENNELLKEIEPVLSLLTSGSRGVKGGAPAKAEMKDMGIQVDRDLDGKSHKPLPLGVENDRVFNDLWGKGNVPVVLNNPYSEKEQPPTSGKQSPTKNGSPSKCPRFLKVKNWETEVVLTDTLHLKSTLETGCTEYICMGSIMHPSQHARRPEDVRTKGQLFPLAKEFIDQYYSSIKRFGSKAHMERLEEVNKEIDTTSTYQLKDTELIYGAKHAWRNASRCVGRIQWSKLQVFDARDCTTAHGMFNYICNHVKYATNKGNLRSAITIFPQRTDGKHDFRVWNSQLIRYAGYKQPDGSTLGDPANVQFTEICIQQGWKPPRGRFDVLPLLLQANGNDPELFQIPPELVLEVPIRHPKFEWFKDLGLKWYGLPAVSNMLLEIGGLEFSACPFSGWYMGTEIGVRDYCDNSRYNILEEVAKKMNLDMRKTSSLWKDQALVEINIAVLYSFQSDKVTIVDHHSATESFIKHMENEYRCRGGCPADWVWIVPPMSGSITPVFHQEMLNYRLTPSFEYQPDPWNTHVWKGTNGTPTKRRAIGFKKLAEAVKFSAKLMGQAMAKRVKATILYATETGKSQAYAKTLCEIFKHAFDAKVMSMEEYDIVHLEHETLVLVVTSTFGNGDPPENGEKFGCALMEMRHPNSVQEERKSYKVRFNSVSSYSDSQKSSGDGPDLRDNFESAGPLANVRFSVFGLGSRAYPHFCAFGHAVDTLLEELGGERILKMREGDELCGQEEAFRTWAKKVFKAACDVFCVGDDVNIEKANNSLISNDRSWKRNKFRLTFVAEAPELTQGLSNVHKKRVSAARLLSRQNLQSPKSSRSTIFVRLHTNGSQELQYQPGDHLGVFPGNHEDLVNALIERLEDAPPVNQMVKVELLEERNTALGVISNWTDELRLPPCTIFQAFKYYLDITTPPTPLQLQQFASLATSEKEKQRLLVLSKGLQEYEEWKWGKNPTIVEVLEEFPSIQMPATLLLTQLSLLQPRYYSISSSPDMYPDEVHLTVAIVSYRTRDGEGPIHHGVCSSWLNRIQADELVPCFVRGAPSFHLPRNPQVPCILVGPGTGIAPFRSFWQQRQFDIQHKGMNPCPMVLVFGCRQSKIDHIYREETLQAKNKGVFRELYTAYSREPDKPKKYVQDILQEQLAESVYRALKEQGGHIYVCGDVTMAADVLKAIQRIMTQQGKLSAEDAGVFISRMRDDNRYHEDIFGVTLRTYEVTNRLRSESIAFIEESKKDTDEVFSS

[5] = physchem; conditions: PAMPA

Row | Structure (SMILES) | pKi [1] | pKi [2] | pKi [3] | pKi [4] | Papp at 17 h, 200 µM [5] [×10⁻⁶ cm/s]
1 | CNCCCc1cc(C#N)cc(CCc2cc(C)cc(N)n2)c1 | 4.79 | 4.38 | 6.60 | 6.29 | 
2 | CNc1cccc(-c2cncc(CCc3cc(C)cc(N)n3)c2)c1 | 5.17 |  | 5.77 |  | 
3 | Cc1cc(N)nc(CCc2cc(C#N)cc(CCCN(C)C)c2)c1 | 4.79 |  | 6.63 |  | 
4 | CNCCCc1cc(F)cc(CCc2cc(C)cc(N)n2)c1 | 5.33 | 4.40 | 7.39 | 7.19 | 
5 | Cc1cc(N)nc(CCc2cc(CCCN(C)C)cc(C(F)(F)F)c2)c1 | 4.44 |  | 6.27 |  | 
6 | CNCCCc1cc(CCc2cc(C)cc(N)n2)cc(C(F)(F)F)c1 | 4.47 | 4.29 | 6.46 | 6.22 | 
7 | CNCc1ccc(-c2cc(F)cc(CCc3cc(C)cc(N)n3)c2)cc1 | 4.96 | 4.16 | 6.73 | 6.44 | 

The next compounds have a higher pKi [1] than those just listed; values first:

Row | pKi [1] | pKi [2] | pKi [3] | pKi [4] | Papp at 17 h, 200 µM [5] [×10⁻⁶ cm/s] | Structure (SMILES)
8 | 5.52 | 5.06 | 7.33 | 7.09 | 5.56 | CNCc1cccc(-c2cncc(CCc3cc(C)cc(N)n3)c2)c1
9 | 5.46 | 4.68 | 7.22 | 7.37 |  | Cc1cc(N)nc(CCc2cccc(CCCN(C)C)c2)c1
10 | 5.44 | 4.70 | 7.32 | 7.26 | 10.4 | CNCCCc1cccc(CCc2cc(C)cc(N)n2)c1
11 | 5.52 | 4.71 | 7.36 | 7.08 | 17.4 | CNCc1cccc(-c2cc(F)cc(CCc3cc(C)cc(N)n3)c2)c1
12 | 5.38 |  | 7.24 | 7.00 |  | CNCc1ccc(-c2cncc(CCc3cc(C)cc(N)n3)c2)cc1
